This passage reports IC50 and Kd results from US8349851B2, “JAK kinase modulating compounds and methods of use thereof” (Ambit Biosciences Corp., priority 2009, dated 2013).

Bounds are passed on as bounds.

As a reminder, the IC50 is the midpoint of a concentration-inhibition curve.

Assay [1] has as its system csTF-1 cells (GM-CSFR/JAK2/STAT5 pathway). Kind of assay: csTF-1 cell-based reporter assay. Further details: species or system human. The following applies: Homo sapiens; GM-CSF at 2 ng/mL, 4 hours; read-out: Cell Assay: CS0017: CS TF-1 reporter assay: IC50. The procedure: csTF-1 Cell-based Reporter Assay
csTF-1 cells are derived from the human erythroleukemia cell line that is growth dependent on GM-CSF and has an intact GM-CSFR/JAK2/STAT5 pathway. The cell line contains stably integrated beta-lactamase reporter gene under the control of the […] (irf 1) response element recognized by the activated transcription factor STATS. csTF-1 cells (Invitrogen K1219) were washed with assay media (97% OPTIMEM/0.5% dialyzed FBS/0.1 mM NEAA/1 mM Na pyr/P/S) and seeded in the same media at 5×10^5 cell/mL in T150 flask. After 16 hour incubation, cells were seeded at 2×10^5 cell/well in 50 μl volume, into Costar, clear bottom, 96-well assay plates. Serial dilutions of compounds were added to the plates with final DMSO concentration at 0.5% and GM-CSF at 2 ng/mL and the plates were then incubated at […] and 5% CO2 for 4 hours. The plates were brought to room temperature before adding Substrate Mixture according to manufacturer's protocol (Invitrogen, Catalog #K1085). The assay plates containing the substrate mixture were incubated in the dark at room temperature for 2 hours. Blue and green fluorescence was measured with excitation at 409 nm and emission at 460 nm (for blue) and excitation at 409 nm and emission at 530 nm (for green) using Spectra Max Gemini EM.
On the technique in general: In a reporter assay the amount or activity of a reporter protein is the signal.

The target in the next assay is T1, JAK3 (Homo sapiens, UniProt P52333).
T1 construct: made in house
Kind of assay: Competition binding assay, JAK3. To be noted: read-out: Binding Assay: JAK3 (active_KD, ENZ). From the text: (§1) Competition Binding Assay to Determine Binding Constants (Kd) of the Compounds Against JAK Kinases
(§2) Competition binding assays used herein were developed, validated and performed as described in Fabian et al., Nature Biotechnology 2005, 23,329-336. Kinases were produced as fusions to T7 phage (See, Fabian et al. or WO04/015142) or alternatively, the kinases were expressed in HEK-293 cells and subsequently tagged with DNA for PCR detection (See, WO08/005310). For the binding assays, streptavidin-coated magnetic beads were treated with biotinylated affinity ligands for 30 min at rt to generate affinity resins. The liganded beads were blocked with excess biotin and washed with blocking buffer (SeaBlock (Pierce), 1% BSA, 0.05% Tween 20, 1 mM DTT) to remove unbound ligand and to reduce non-specific binding. […] Test compounds were prepared as 100× stocks in DMSO and rapidly diluted into the aqueous environment. DMSO was added to control assays lacking a test compound. Primary screen interactions were performed in polypropylene 384-well plates in a final volume of 34 μL, while Kd determinations were performed in polystyrene 96-well plates in a final volume of 135 μL. […] The kinase concentration in the eluates was measured by quantitative PCR. Each kinase was tested individually against each compound. Kds were determined using eleven serial threefold dilutions. A selectivity score, which is a quantitative measure of selectivity of a compound against a panel of enzymes, may be calculated for a compound by dividing the number of enzymes for which a compound meets a set criteria, (for example, a binding constant of 100 nM or less), by the total number of enzymes tested.

Another assay concerns the target T2, JAK2 (Homo sapiens, UniProt O60674).
T2 construct: made in house
Put plainly: Competition binding assay, JAK2. To be noted: read-out: Binding Assay: JAK2 (active_KD).
Excerpt: as §1, §2

Another assay has as its target T3, AuroraB (Homo sapiens, UniProt Q96GD4).
T3 construct: made in house
Kind of assay: Competition binding assay, Aurora B.
Excerpt: Methods for determining binding constant against Aurora B kinase are known to one of skill in the art. Exemplary methods are described in U.S. provisional application No. 61/294,413, and Fabian et al., Nature Biotechnology 2005, 23,329-336.
as §2

T3 sequence (Q96GD4 whole entry): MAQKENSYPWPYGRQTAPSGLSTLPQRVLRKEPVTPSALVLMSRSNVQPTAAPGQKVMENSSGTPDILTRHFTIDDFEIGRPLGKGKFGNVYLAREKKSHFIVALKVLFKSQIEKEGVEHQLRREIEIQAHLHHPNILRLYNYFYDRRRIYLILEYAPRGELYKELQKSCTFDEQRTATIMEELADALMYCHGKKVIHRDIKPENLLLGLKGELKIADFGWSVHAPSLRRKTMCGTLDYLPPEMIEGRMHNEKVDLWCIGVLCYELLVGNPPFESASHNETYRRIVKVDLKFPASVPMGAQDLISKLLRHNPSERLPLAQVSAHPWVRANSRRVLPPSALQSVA
T2 sequence (O60674 849-1124 limits assumed): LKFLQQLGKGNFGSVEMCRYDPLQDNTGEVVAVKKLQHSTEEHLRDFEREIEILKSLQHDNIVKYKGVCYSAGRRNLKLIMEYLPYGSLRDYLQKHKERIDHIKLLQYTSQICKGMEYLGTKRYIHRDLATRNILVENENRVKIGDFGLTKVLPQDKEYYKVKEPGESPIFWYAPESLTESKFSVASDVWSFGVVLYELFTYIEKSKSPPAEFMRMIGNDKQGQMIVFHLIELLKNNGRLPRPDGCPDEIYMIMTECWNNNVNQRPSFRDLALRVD
T1 sequence (P52333 822-1111 limits assumed): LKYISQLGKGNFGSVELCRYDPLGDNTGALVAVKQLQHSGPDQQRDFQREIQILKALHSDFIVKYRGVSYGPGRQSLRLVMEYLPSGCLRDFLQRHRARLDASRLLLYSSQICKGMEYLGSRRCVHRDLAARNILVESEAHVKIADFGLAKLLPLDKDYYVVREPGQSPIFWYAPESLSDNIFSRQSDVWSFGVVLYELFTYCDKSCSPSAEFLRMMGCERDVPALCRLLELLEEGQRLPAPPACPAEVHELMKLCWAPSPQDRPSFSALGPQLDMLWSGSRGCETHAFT

For the compound `Cc1cc(Nc2nc(C(O)c3ccc(F)cc3)nc3cc(OCCO)ccc23)n[nH]1` (racemic) [Example 39, (R,S)-2-(2-((4-fluorophenyl)(hydroxy)methyl)-4-(5-methyl-1H-pyrazol-3-ylamino)quinazolin-7-yloxy)ethanol], in assay [1], the IC50 was at most 0.1 µM. The Kd was at most 0.01 µM on JAK3, at most 0.001 µM at JAK2 and above 0.2 µM on AuroraB.
On the same counts, the results for `Cc1cc(Nc2nc(C(O)c3ccc(F)cc3)nc3cc(OCCCO)ccc23)n[nH]1` (racemic) [Example 40, (R,S)-3-(2-((4-fluorophenyl)(hydroxy)methyl)-4-(5-methyl-1H-pyrazol-3-ylamino)quinazolin-7-yloxy)propan-1-ol] are at most 0.1 µM, at most 0.01 µM, at most 0.001 µM and above 0.2 µM.
As to `COCCOc1ccc2c(Nc3cc(C)[nH]n3)nc(C(O)c3ccc(F)cc3)nc2c1` (racemic) [Example 42, (R,S)-(4-fluorophenyl)(7-(2-methoxyethoxy)-4-(5-methyl-1H-pyrazol-3-ylamino)quinazolin-2-yl)methanol], in assay [1], the IC50 is at most 0.1 µM. Besides, the figures for the Kd on JAK3, on JAK2 and on AuroraB were at most 0.01 µM, at most 0.001 µM and above 0.2 µM, respectively.
Taken in the same sequence, the figures for `Cc1cc(Nc2nc(C(O)c3ccc(F)cc3)nc3cc(OCC(=O)OC(C)(C)C)ccc23)n[nH]1` (racemic) [Example 43, (R,S)-tert-butyl 2-(2-((4-fluorophenyl)(hydroxy)methyl)-4-(5-methyl-1H-pyrazol-3-ylamino)quinazolin-7-yloxy)acetate] were 0.1 to 0.5 µM, 0.01 to 0.1 µM, at most 0.001 µM and above 0.2 µM.
Taken in the same sequence, the figures for `Cc1cc(Nc2nc(C(O)c3ccc(F)cc3)nc3cc(OCC(=O)O)ccc23)n[nH]1` (racemic) [Example 44, (R,S)-2-(2-((4-fluorophenyl)(hydroxy)methyl)-4-(5-methyl-1H-pyrazol-3-ylamino)quinazolin-7-yloxy)acetic acid] were above 0.5 µM, at most 0.01 µM, at most 0.001 µM and above 0.2 µM.
Taken in the same sequence, the figures for `COC(=O)NC(c1ccc(F)cc1)c1nc(Nc2cc(C)[nH]n2)c2ccccc2n1` (racemic) [Example 45, (R,S)-methyl (4-fluorophenyl)(4-(5-methyl-4H-pyrazol-3-ylamino)quinazolin-2-yl) methylcarbamate] were 0.1 to 0.5 µM, 0.01 to 0.1 µM, at most 0.001 µM and above 0.2 µM.
For `Cc1cc(Nc2nc(C(O)c3ccc(F)cc3)nc3c(C)cccc23)n[nH]1` (racemic) [Example 46, (R,S)-(4-fluorophenyl)(8-methyl-4-(5-methyl-1H-pyrazol-3-ylamino)quinazolin-2-yl)methanol], the IC50 in assay [1] was 0.1 to 0.5 µM. In addition, the values for the Kd at JAK3, on JAK2 and on AuroraB were 0.01 to 0.1 µM, at most 0.001 µM and above 0.2 µM, respectively.
Taken in the same sequence, the figures for `Cc1cc(Nc2nc(C(O)c3ccc(F)cc3)nc3cc(F)ccc23)n[nH]1` (racemic) [Example 47, (R,S)-(7-fluoro-4-(5-methyl-1H-pyrazol-3-ylamino)quinazolin-2-yl)(4-fluorophenyl)methanol] were 0.1 to 0.5 µM, 0.01 to 0.1 µM, at most 0.001 µM and above 0.2 µM.
On the same counts, the results for `Cc1cc(Nc2nc(C(O)c3ccc(F)cc3)nc3cc(Cl)ccc23)n[nH]1` (racemic) [Example 52, (R,S) (7-chloro-4-(5-methyl-1H-pyrazol-3-ylamino)quinazolin-2-yl)(4-fluorophenyl)methanol] are at most 0.1 µM, 0.01 to 0.1 µM, 0.001 to 0.01 µM and above 0.2 µM.
In the case of `Cc1cc(Nc2nc(C(=O)c3cccc(F)c3)nc3ccccc23)n[nH]1` [Example 1, (3-fluorophenyl)(4-(5-methyl-1H-pyrazol-3-ylamino)quinazolin-2-yl)methanone], the IC50 in assay [1] lay in the range of 0.1 to 0.5 µM. The Kd at JAK3 was 0.01 to 0.1 µM; at JAK2 it was 0.001 to 0.01 µM; on AuroraB, above 0.2 µM.
In the case of `O=C(c1cccc(F)c1)c1nc(Nc2cc[nH]n2)c2ccccc2n1` [Example 2, (4-(1H-pyrazol-3-ylamino)quinazolin-2-yl)(3-fluorophenyl)methanone], in assay [1], the IC50 was above 0.5 µM. The Kd is above 0.1 µM at JAK3, above 0.01 µM at JAK2 and above 0.2 µM on AuroraB.
On the same counts, the results for `Cc1cc(Nc2nc(C(=O)c3ccc(F)cc3)nc3ccccc23)n[nH]1` [Example 3, (4-fluorophenyl)(4-(5-methyl-1H-pyrazol-3-ylamino)quinazolin-2-yl)methanone] are at most 0.1 µM, 0.01 to 0.1 µM, at most 0.001 µM and above 0.2 µM.
On to `O=C(c1ccc(F)cc1)c1nc(Nc2cc[nH]n2)c2ccccc2n1` [Example 4, (4-(1H-pyrazol-3-ylamino)quinazolin-2-yl)(4-fluorophenyl)methanone], for which the IC50 in assay [1] is at most 0.1 µM. Moreover, the values for the Kd on JAK3, on JAK2 and at AuroraB were 0.01 to 0.1 µM, at most 0.001 µM and above 0.2 µM, respectively.
Taken in the same sequence, the figures for `COc1ccccc1C(=O)c1nc(Nc2cc[nH]n2)c2ccccc2n1` [Example 5, (4-(1H-pyrazol-3-ylamino)quinazolin-2-yl)(2-methoxyphenyl)methanone] were 0.1 to 0.5 µM, above 0.1 µM, 0.001 to 0.01 µM and above 0.2 µM.
On the same counts, the results for `Cc1cc(Nc2nc(C(F)(F)c3ccc(F)cc3)nc3ccccc23)n[nH]1` [Example 8, 2-(difluoro(4-fluorophenyl)methyl)-N-(5-methyl-1H-pyrazol-3-yl)quinazolin-4-amine] are at most 0.1 µM, at most 0.01 µM, at most 0.001 µM and above 0.2 µM.
Taken in the same sequence, the figures for `Fc1ccc(C(F)(F)c2nc(Nc3cc[nH]n3)c3ccccc3n2)cc1` [Example 9, 2-(difluoro(4-fluorophenyl)methyl)-N-(1H-pyrazol-3-yl)quinazolin-4-amine] were at most 0.1 µM, 0.01 to 0.1 µM, at most 0.001 µM and above 0.2 µM.
Regarding `Fc1ccc(C(F)(F)c2nc(Nc3cc(C4CC4)[nH]n3)c3ccccc3n2)cc1` [Example 10, N-(5-cyclopropyl-1H-pyrazol-3-yl)-2-(difluoro(4-fluorophenyl)methyl)quinazolin-4-amine], the IC50 in assay [1] is at most 0.1 µM. For the same compound, the Kd on JAK3 was at most 0.01 µM; at JAK2, 0.001 to 0.01 µM; at AuroraB it was above 0.2 µM.
On the same counts, the results for `Cc1cc(Nc2nc(C(=O)c3ccc(F)cc3)nc3cc(C(F)(F)F)ccc23)n[nH]1` [Example 17, (4-fluorophenyl)(4-(5-methyl-1H-pyrazol-3-ylamino)-7-(trifluoromethyl)quinazolin-2-yl)methanone] are 0.1 to 0.5 µM, above 0.1 µM, above 0.01 µM and above 0.2 µM.
Taken in the same sequence, the figures for `Cc1cc(Nc2nc(C(=O)c3ccc(F)cc3)nc3cc(F)ccc23)n[nH]1` [Example 19, (7-fluoro-4-(5-methyl-1H-pyrazol-3-ylamino)quinazolin-2-yl)(4-fluorophenyl)methanone] were at most 0.1 µM, 0.01 to 0.1 µM, 0.001 to 0.01 µM and above 0.2 µM.
On the same counts, the results for `Cc1cc(Nc2nc(C(F)(F)c3ccc(F)cc3)nc3cc(F)ccc23)n[nH]1` [Example 20, 2-(difluoro(4-fluorophenyl)methyl)-7-fluoro-N-(5-methyl-1H-pyrazol-3-yl)quinazolin-4-amine] are at most 0.1 µM, 0.01 to 0.1 µM, at most 0.001 µM and above 0.2 µM.
